The source of these data is patent US20240245639A1, “Dermal Application of Retinoic Acid Receptor Agonists for Amelioration of Hypertrophic Scar” (Northwestern University, priority 2023, published 2024).

The subject of test [1] is primary human foreskin fibroblasts. The test can be described thus: Antagonism of fibroblast activation in presence or absence of TGF-β1 (qRT-PCR, Western blot, immunofluorescence). The test is classed as cell-based.
For test [2] the test system is unchanged. Conditions: second donor, 1,000 nM, 24 hours.
Method: Cell culture Primary human neonatal foreskin fibroblasts were obtained from the Skin Biology and Diseases Resource-based Center at Northwestern University. Primary rabbit dermal fibroblasts were isolated from female New Zealand White rabbits via harvesting full-thickness skin biopsies from rabbit ears, digesting overnight in a solution of 5 mg/mL dispase, and subsequently mechanically separating dermis from epidermis. After discarding epidermal tissue, dermal tissue was minced with a razor blade, and fibroblasts were liberated through collagenase-mediated digestion for growth in culture. […] Human fibroblasts and rabbit fibroblasts were cultured on tissue culture plastic (or, for immunofluorescence experiments, on glass coverslips) in DMEM+10% FBS and were serum starved in DMEM+0.1% FBS for 24 hours prior to drug treatments. When indicated, recombinant human TGF-β 1 was included in culture medium at a concentration of 10 ng/mL. Cultures were maintained in a humidified cell culture incubator at 37° C., 5% CO2, and ambient O2. For treatment with drugs and associated vehicle controls, the fraction of DMSO in the media was always maintained at <0.1% (v/v) in order to avoid confounding effects. […]
Test [3] has as its system primary human keloid fibroblasts. The test can be described thus: Collagen I deposition in keloid fibroblasts (Western blot, immunofluorescence). The test is classed as cell-based. To be noted: keloid fibroblasts, 1,000 nM Ch55, presence and absence of TGF-β1, 48 hours. The procedure:
(§1) Since overproduction of collagen is characteristic of fibroblasts in tissue fibrosis, including hypertrophic scar and keloid, we wished to determine whether Ch55 also affects deposition of collagen I by these fibroblasts.
(§2) Cells cultured on glass coverslips were fixed in 4% paraformaldehyde for 30 minutes at room temperature. Cells were blocked in 10% normal goat serum and incubated overnight at 4° C. in solutions of the following primary antibodies: Rabbit monoclonal α-human α-SMA (1:500 dilution, catalog #192455, Cell Signaling Technology, Danvers M A) or mouse α-human COL1A1 (1:1000 dilution, catalog #M-38c, DSHB, Iowa City, IA). The following day, cells were incubated in 1:200 diluted solutions of goat-α-rabbit IgG or donkey-α-mouse IgG Alexafluor 488-conjugated secondary antibodies (A11034 or A21202, Invitrogen) containing Alexafluor 568-conjugated phalloidin (A12380, Invitrogen) for 2 hours in the dark at room temperature, before a 20 minute counterstain in 500 ng/mL DAPI. […]
(§3) Harvested scar tissues were incubated in 0.5M ammonium thiocyanate for 20 minutes, followed by mechanical separation of dermis and epidermis using a dissecting microscope. […] Protein concentrations of cell culture and tissue samples were determined using a DC protein assay (BioRad). […]

In test [4] the test system is primary human HTS fibroblasts. The test can be described thus: Collagen I deposition in hypertrophic scar fibroblasts (Western blot, immunofluorescence). Type of test: cell-based. Conditions: HTS fibroblasts, 1,000 nM Ch55, presence and absence of TGF-β1, 48 hours. As for the experimental part: as §1, §2, §3
Test [5] concerns primary human foreskin fibroblasts. The test is described as follows: In vitro single-concentration screen of predicted compounds (brightfield, qRT-PCR). The test is classed as cell-based. Conditions: single concentration, 24 hours, vs vehicle. As for the experimental part: In order to initially test the identified drugs, we applied each drug or DMSO vehicle control at a single concentration to primary human foreskin fibroblasts in vitro for 24 hours, before harvesting and measuring relative expression of selected myofibroblast marker genes by qRT-PCR. […] None of the drugs tested appeared to affect expression of TGFB1 (the gene encoding transforming growth factor-beta 1) at the examined concentrations.
MATERIALS AND METHODS Materials Emetine dihydrochloride hydrate, homoharringtonine, Ch55 and panobinostat were acquired from Fisher Scientific (Waltham, MA). AZD-7762 was acquired from Selleck Chemicals (Houston, TX). For in vitro work, emetine dihydrochloride hydrate was dissolved in sterile H2O at 50 mM. Homoharringtonine was dissolved in DMSO at 10 mg/mL. Panobinostat was dissolved in DMSO at 425 μM. […] AZD-7762 was dissolved in DMSO at 500 μM. Recombinant human TGF-β1 (Sigma-Aldrich) was dissolved in sterile H2O at 50 µg/mL. All-trans-retinoic acid (Thermo Scientific) was dissolved in DMSO at 10 mM.

Setting [6] is: 1,000 nM Ch55, ± 10 ng/mL TGF-β1, 24 hour.
The mark [7] stands for this setting: 1,000 nM Ch55, ± TGF-β1, 48 hours.

With `CC(C)(C)c1cc(C(=O)/C=C/c2ccc(C(=O)O)cc2)cc(C(C)(C)C)c1` [Ch55], in test [1] (1,000 nM Ch55, 48 hours), the “spread area per cell (brightfield microscopy)” value is on record as “decreased”. In test [1] (1,000 nM Ch55, presence and absence of TGF-β1, 48 hours), the “deposition of collagen I (immunofluorescence)” value was “greatly diminished deposition”. In test [1] (setting [6]), the “basal and TGF-β1-induced expression of ACTA2 (qRT-PCR)” value is “significantly downregulated”; the “basal and TGF-β1-induced expression of CCN2 (qRT-PCR)” value is recorded as “significantly downregulated”; the “basal and TGF-β1-induced expression of SERPINE1 (qRT-PCR)” value is recorded as “significantly downregulated”. Further, in test [1] (setting [7]), the “collagen deposition as assessed by expression of type I collagen (Western blot)” value is on record as “dramatically antagonized” and the “fibroblast activation as assessed by expression of α-SMA (Western blot)” value is reported as “dramatically antagonized”. Also, the “effects on morphology and gene expression in fibroblasts of another tissue donor” value in test [2] is “comparable effects”. The “collagen I deposition (Western blot, immunofluorescence)” value in test [3] is reported as “dramatic reduction”. In test [4], the “collagen I deposition (Western blot, immunofluorescence)” value is given as “dramatic reduction”. For the same molecule, in test [5], the “ACTA2 expression (qRT-PCR)” value is “clear and consistent downregulation”; the “CCN2 expression (qRT-PCR)” value is “clear and consistent downregulation”; the “MMP1 expression (qRT-PCR)” value is “without downregulating”; the “SERPINE1 expression (qRT-PCR)” value was “clear and consistent downregulation”.
